In US20030220521A1, “Renal-selective prodrugs for control of renal sympathetic nerve activity in the treatment of hypertension” (G.D. Searle & Co., priority 1989, published 2003):
Where a name gives a salt, the structure may show the parent alone.

Assays:
conscious SHR = assay: Assay XIII: antihypertensive experiments in conscious SHR (renal denervation, bulbocapnine); format: in vivo, rat; conditions: bulbocapnine alone
Description: For antihypertensive experiments, male SHR (11-13 weeks of age; Harlan Sprague-Dawley, Inc.; Indianapolis, Ind.) were habituated for 3-4 days in individual experimental cages, which became their home cages for the duration of the study. Five to seven days before experimentation, SHR were anesthetized with chloral hydrate (400 mg/kg; Sigma Chemical Co., St. Louis, Mo.) and catheters were implanted into a femoral artery and vein. The catheters were led to the back of the neck, exteriorized, and channeled through a tether and swivel system (Alice King Chatham, Los Angeles, Calif.). Surgical renal denervation was performed as above. […] In separate groups of conscious SHR, Ex. #859 (5 mg/kg/hr, n=6) was infused alone, Ex. #859 (5 mg/kg/hr, n=6) was coinfused with bulbocapnine (100 μg/kg/min), or Ex. #859 (10 mg/kg/hr, n=6) was infused 5-7 days after surgical renal denervation. Surgical renal denervation was performed as described above. After a one hour control measure of mean arterial pressure, compounds were infused for four hours and mean arterial pressure was measured continuously.

Sprague-Dawley rats = assay: Assay I: acute in vivo effects on mean arterial pressure and renal blood flow, anesthetized rats; set-up: species or system rat; conditions: for MAP / RBF: 100 mg/kg i.v.
Description: Sprague-Dawley rats were anesthetized with inactin (100 mg/kg, i.p.) and catheters were implanted into a carotid artery for measurement of mean arterial pressure (Gould model 3800 chart recorder; Statham pressure transducer model no. P23DB) and into a jugular vein for compound administrations (i.v.). In addition, a flow probe was implanted around the left renal artery for measurement of renal blood flow using Carolina Medical Electronics flow probes. Rats were allowed 60 min to stabilize before 10 minutes of control recordings of mean arterial pressure and renal blood flow were obtained. Control measurements were followed by intravenous injection of Ex. #3 conjugate and saline vehicle.

[1] = system: spontaneously hypertensive rats; assay: Assay II: chronic i.v. infusion, mean arterial pressure in spontaneously hypertensive rats (Ex. #3); format: in vivo, rat; conditions: SHR, continuous infusion 5 mg/hr
Description: (§1) The Ex. #3 conjugate and saline vehicle were infused continuously for four days in spontaneously hypertensive rats. Mean arterial pressure was measured (Gould Chart Recorder, model 3800; Statham P23Db pressure transducer) via an indwelling femoral artery catheter between 10:00 a.m. and 2:00 p.m. each day. The Ex. #3 conjugate was infused at 5 mg/hr and the saline vehicle was infused at 300 μL,/hr. via a jugular vein catheter with a Harvard infusion pump.

[2] = system: spontaneously hypertensive rats; assay: Assay III: chronic i.v. infusion, mean arterial pressure in spontaneously hypertensive rats (Ex. #464); format: in vivo, rat; conditions: SHR; for MAP: continuous infusion 10 mg/hr
Description: as §1, with “#464” for “#3”, “10” for “5”, “μL/hr.” for “μL,/hr. via a jugular vein catheter with a Harvard infusion pump.”

[3] = molecular target: T1, dopamine beta-hydroxylase (DBH; EC 1.14.17.1) (Bos taurus, UniProt P15101); assay: Assay V: in vitro DBH inhibition (norepinephrine production, HPLC); format: biochemical, bovine; conditions: for inhibition at 20 µM: test compound 20 μM, read-out: % Inhibition of DBH
T1 construct: DBH, purified from bovine adrenals (Sigma); purchased Sigma; host or cells: bovine adrenals (tissue-purified)
T1 sequence (P15101 1-610): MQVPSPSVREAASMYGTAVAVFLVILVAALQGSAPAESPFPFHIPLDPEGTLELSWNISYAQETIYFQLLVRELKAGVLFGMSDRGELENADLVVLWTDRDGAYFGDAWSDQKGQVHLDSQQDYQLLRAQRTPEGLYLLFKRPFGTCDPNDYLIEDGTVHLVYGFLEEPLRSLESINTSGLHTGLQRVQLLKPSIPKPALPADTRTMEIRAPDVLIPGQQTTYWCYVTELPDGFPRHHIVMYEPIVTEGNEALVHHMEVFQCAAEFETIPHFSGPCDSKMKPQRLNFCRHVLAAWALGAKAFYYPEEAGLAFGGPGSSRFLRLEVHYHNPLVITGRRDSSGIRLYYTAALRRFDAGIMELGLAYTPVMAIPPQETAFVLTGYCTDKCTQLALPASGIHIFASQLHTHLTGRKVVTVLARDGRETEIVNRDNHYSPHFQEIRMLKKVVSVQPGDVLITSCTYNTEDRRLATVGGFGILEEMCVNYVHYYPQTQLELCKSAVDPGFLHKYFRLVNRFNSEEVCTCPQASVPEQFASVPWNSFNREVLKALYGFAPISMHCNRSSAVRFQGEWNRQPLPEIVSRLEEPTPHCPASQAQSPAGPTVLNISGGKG
Description: In order to characterize the relative potency of the Ex. #859 conjugate and its various potential metabolites as inhibitors of dopamine beta-hydroxylase (DBH; EC 1.14.17.1), the enzyme activity was determined in vitro in the presence of these compounds. DBH, purified from bovine adrenals (Sigma) was incubated at 37° C. in buffer containing 20 mM dopamine as substrate. The reaction was stopped by addition of 0.5 M perchloric acid. The precipitate was removed and the product of the enzyme activity (norepinephrine), contained in the clear supernatant, was analyzed by HPLC. The chromatographic separation used a reversed phase C-18 column run isocratically with 0.2 M ammonium acetate (pH 5.2) as the mobile phase. The amount of norepinephrine produced by the enzyme-substrate mixture was analyzed by measuring the peak intensity (absorbance) at 280 nm for norepinephrine as it was eluted at 4.5 minutes, using a photo-diode array detector. The result of adding either fusaric acid or the Ex. #859 conjugate to the incubate at various concentrations is shown in Table XXIII and FIG. 6. […] Fusaric acid and Ex. #859 and two more possible metabolites (Ex #858 and fusaric acid hydrazide) were tested at 20 uM.

[4] = system: spontaneously hypertensive rats; assay: Assay IX: chronic 4 day i.v. infusion of Ex. #861 and #863, mean arterial pressure in SHR; format: in vivo, rat; conditions: for Blood Pressure (mean arterial pressure): 5 mg/hr i.v. infusion; for chronic effect on mean arterial pressure: SHR, 4 day infusion at 5 mg/hr
Description: The conjugates of Ex. #861 and #863 and saline vehicle were infused continuously for 4 days in spontaneously hypertensive rats. Mean arterial pressure was measured (Gould Chart Recorder, model 3800; Statham P23Db pressure transducer) via an indwelling femoral artery catheter between 10:00 a.m. and 2:00 p.m. each day. The Ex. #861 and Ex. #863 conjugates were infused at 5 mg/hr and the saline vehicle was infused at 100 μl/hr via a jugular vein catheter with a Harvard infusion pump. […] It is believed that at a higher dose of the Ex. #861 conjugate, blood pressure lowering effects would be observed.

[5] = system: spontaneously hypertensive rats; assay: Assay VI: acute in vivo effects on mean arterial pressure and renal blood flow in anesthetized SHR (i.v. or i.d.); set-up: species or system rat; conditions: for MAP / RBF: 100 mg/kg i.v.
Description: Spontaneously hypertensive rats were anesthetized with inactin (100 mg/kg, i.p.) and catheters were implanted into a carotid artery for measurement of mean arterial pressure (Gould model 3800 chart recorder; Statham pressure transducer model no. P23DB) and into a jugular vein for compound administrations (i.v. or i.d.). In addition, a flow probe was implanted around the left renal artery for measurement of renal blood flow using pulsed Doppler flowmetry. Rats were allowed 60 min to stabilize before 10 minutes of control recordings of mean arterial pressure and renal blood flow were obtained. Control measurements were followed by intravenous injection of 50 mg/kg of fusaric acid or the Ex. #859 conjugate. […] The Ex. #859 conjugate had no effect on mean arterial pressure at a dose of 100 mg/kg (n=4) during a 60 minute observation period. Renal blood flow (n=4) was unchanged 15 minutes after injection of the Ex. #859 conjugate but increased from 1.1 KHz (control period) to 3.5 KHz at 30 minutes postinjection.

[6] = system: Spontaneously Hypertensive Rats (SHR); assay: Assay VII: acute effects on arterial pressure in anesthetized SHR; format: in vivo, rat; conditions: i.v.: fusaric acid and fusaric acid hydrazide 100 mg/kg, Ex. #859 250 mg/kg
Description: Mean arterial pressure effects of fusaric acid hydrazide (100 mg/kg, i.v.), fusaric acid (100 mg/kg, i.v.) and Ex. #859 conjugate (250 mg/kg, i.v.) are shown in Table XXVII during a vehicle control period and 60 min post-injection of compound in anesthetized SHR. Rats were prepared as described above, minus the renal artery flow probe.

[7] = anesthetized SHR, Ex. #863 (Table XXVI)

Compound: CCCCc1ccc(C(=O)NCCNC(=O)CCC(NC(C)=O)C(=O)O)nc1 (as salt: salt) [Ex. #861, N^2-acetyl-N-[2-[[(5-butyl-2-pyridinyl)carbonyl]amino]ethyl]-L-glutamine]
- melting point: 156 to 158 °C

Compound: COc1ccc2c(c1O)-c1c3c(cc4c1[C@H](C2)N(C)CC4)OCO3 [Bulbocapnine, bulbocapnine, reference compound]
- Mean arterial pressure (conscious SHR; 0 hours): 160 ± 6
- Mean arterial pressure (conscious SHR; 1 hour): 156 ± 7
- Mean arterial pressure (conscious SHR; 2 hours): 161 ± 11
- Mean arterial pressure (conscious SHR; 3 hours): 159 ± 6
- Mean arterial pressure (conscious SHR; 4 hours): 157 ± 7
- effect on mean arterial pressure over the four hour period (conscious SHR; conscious SHR): no effect

Compound: CC(=O)NC(CCC(=O)N[C@@](C)(Cc1ccc(O)cc1)C(=O)O)C(=O)O (stereo partly drawn) [Ex. #3, N-[4-(acetylamino)-4-carboxy-1-oxobutyl]-α-methyl-L-tyrosine]
- MAP (Sprague-Dawley rats; 15 min after injection): 77 ± 5 mm Hg
- RBF (Sprague-Dawley rats; 15 min after injection): 7.1 ± 0.1 mL/min
- MAP (Sprague-Dawley rats; 30 min after injection): 73 ± 4 mm Hg
- RBF (Sprague-Dawley rats; 30 min after injection): 6.2 ± 0.3 mL/min
- MAP (Sprague-Dawley rats; 45 min after injection): 70 ± 2 mm Hg
- RBF (Sprague-Dawley rats; 45 min after injection): 5.9 ± 0.1 mL/min
- MAP (Sprague-Dawley rats; 60 min after injection): 71 ± 6 mm Hg
- RBF (Sprague-Dawley rats; 60 min after injection): 5.9 ± 0.1 mL/min
- MAP (Sprague-Dawley rats; time after injection Zero min): 76 ± 5 mm Hg
- RBF (Sprague-Dawley rats; time after injection Zero min): 4.8 ± 0.8 mL/min
- acute effect on mean arterial pressure (MAP) (Sprague-Dawley rats; i.v. injection): no acute effects
- acute effect on renal blood flow (RBF) (Sprague-Dawley rats; i.v. injection): increased renal blood flow
- MAP ([1]; day 1): 175 ± 5 mm Hg
- MAP ([1]; day 2): 174 ± 5 mm Hg
- MAP ([1]; day 3): 172 ± 2 mm Hg
- MAP ([1]; day Zero): 164 ± 3 mm Hg

Compound: CC(=O)NC(CCC(=O)N[C@@](C)(Cc1ccc(O)c(O)c1)C(=O)O)C(=O)O (stereo partly drawn) [Ex. #464, N-[4-(acetylamino)-4-carboxy-1-oxobutyl]-3-hydroxy-α-methyl-L-tyrosine]
- MAP ([2]; day 1): 169 ± 5 mm Hg
- MAP ([2]; day 2): 161 ± 4 mm Hg
- MAP ([2]; day 3): 163 ± 5 mm Hg
- MAP ([2]; day 4): 159 ± 8 mm Hg
- MAP ([2]; day Zero): 179 ± 6 mm Hg
- effect on mean arterial pressure over the four-day period ([2]; infusion 10 mg/hr): lowered significantly

Compound: CCCCc1ccc(C(=O)NNC(=O)CCC(N)C(=O)O)nc1 [Ex. #858, L-glutamic acid, 5-{[(5-butyl-2-pyridinyl)carbonyl]hydrazide}]
- inhibition at 20 µM [3]: 0%

Compound: CCCCc1ccc(C(=O)NCCNC(=O)CCC(NC(C)=O)C(=O)O)nc1 [Ex. #861, N^2-acetyl-N-[2-[[(5-butyl-2-pyridinyl)carbonyl]amino]ethyl]-L-glutamine]
- Blood Pressure (mean arterial pressure) ([4]; day 1): 173 ± 3
- Blood Pressure (mean arterial pressure) ([4]; day 2): 172 ± 4
- Blood Pressure (mean arterial pressure) ([4]; day 3): 172 ± 3
- Blood Pressure (mean arterial pressure) ([4]; day 4): 163 ± 9
- Blood Pressure (mean arterial pressure) ([4]; day zero): 177 ± 3
- chronic effect on mean arterial pressure [4]: did not change

Compound: CCCCc1ccc(C(=O)N2CCN(C(=O)CCC(NC(C)=O)C(=O)O)CC2)nc1 (stereo not shown) [Ex. #863, 2-(acetylamino)-5-(4-[(5-butyl-2-pyridinyl)carbonyl]-1-piperazinyl]-5-oxopentanoic acid]
- MAP ([5]; 60 min): 147 ± 14 mm Hg
- RBF ([5]; 60 min): 4.3 ± 0.3 KHz
- MAP ([5]; time zero): 149 ± 14 mm Hg
- RBF ([5]; time zero): 1.6 ± 0.2 KHz
- effect on mean arterial pressure [5, 7]: no effect
- effect on renal blood flow [5, 7]: increased renal blood flow
- Blood Pressure (mean arterial pressure) ([4]; day 1): 152 ± 6
- Blood Pressure (mean arterial pressure) ([4]; day 2): 146 ± 7
- Blood Pressure (mean arterial pressure) ([4]; day 3): 142 ± 7
- Blood Pressure (mean arterial pressure) ([4]; day 4): 154 ± 7
- Blood Pressure (mean arterial pressure) ([4]; day zero): 177 ± 5
- chronic effect on mean arterial pressure [4]: lowered mean arterial pressure

Compound: CCCCc1ccc(C(=O)NN)nc1 [Fusaric Acid Hydrazide, 5-n-butylpicolinic acid hydrazide]
- inhibition at 20 µM [3]: 13.8%
- inhibitory effect on dopamine-β-hydroxylase activity ([3]; tested at 20 uM): Only fusaric acid had significant inhibitory effects
- Mean arterial pressure ([6]; 60 MIN post-injection): 104 ± 13 mmHg
- Mean arterial pressure ([6]; ZERO (vehicle control period)): 159 ± 8 mmHg
